Where two headings read alike, the source gives them in different places.
Assays:
[1] = test system: Pseudomonas aeruginosa ATCC 27853; test: Broth microdilution MIC; format: cell-based; conditions: Pseudomonas aeruginosa, ATCC27853, read-out: Minimum Inhibitory Concentrations (MIC)
[2] = test system: Escherichia coli ATCC 25922; test: Broth microdilution MIC; format: cell-based; conditions: for MIC: Escherichia coli, ATCC25922, read-out: Minimum Inhibitory Concentrations (MIC)
[3] = test system: Listeria monocytogenes ATCC 7644; test: Biofilm inhibition assay (crystal violet); format: cell-based; conditions: for biofilm inhibition: L. monocytogenes
Experimental: (§1) The ability of the candidate compounds to inhibit biofilm formation was evaluated by determining the minimum biofilm inhibitory concentration (MBIC) against the biofilm-forming strains Staphylococcus aureus ATCC 25923 and Listeria monocytogenes ATCC 7644. Overnight bacterial cultures were diluted in fresh, pre-warmed Mueller–Hinton broth (MHB) and incubated at 37 °C with constant shaking at 220 rpm. Once the cultures reached the exponential growth phase (OD600 = 0.3–0.5), they were standardized to a final concentration of 4 × 10^6 CFU/mL.
(§2) Aliquots (50 µL) of the standardized bacterial suspension were inoculated into 96-well microtiter plates containing the test compounds at final concentrations of 100, 50, 25, and 12.5 µg/mL. Plates were incubated at 37 °C for 24 to 48 h, depending on the bacterial strain. After incubation, the planktonic cells were carefully aspirated to preserve the integrity of the biofilm layer. Wells were gently rinsed with sterile ultrapure Milli-Q water and air-dried at 60 °C for 1 h to fix the biofilms. Biofilm formation was quantified using a crystal violet (CV) staining method. Wells were stained with 100 µL of 0.1% CV solution and incubated at room temperature for 1 h. Excess dye was removed by rinsing with sterile ultrapure Milli-Q water, followed by air-drying. Bound CV was solubilized with 100 µL of 70% ethanol and incubated for 30 min. The solubilized dye was transferred to a fresh plate, and absorbance was measured at 595 nm using a microplate reader (Bio-Tek EL808, Winooski, VT, USA). Absorbance values were directly proportional to biofilm biomass. Untreated bacterial cultures served as positive controls for biofilm formation, while sterile MHB served as the negative control.

[4] = test system: Listeria monocytogenes ATCC 7644; test: Time-resolved growth kinetics; format: cell-based; conditions: MIC and ½ MIC
Experimental: (§3) The antimicrobial activity of the candidate compounds against Staphylococcus aureus ATCC 25923 and Listeria monocytogenes ATCC 7644 was further evaluated using a time-resolved growth kinetics assay in 96-well microtiter plates. Overnight bacterial cultures were diluted in fresh, pre-warmed Mueller–Hinton broth (MHB) and incubated at 37 °C with orbital shaking at 220 rpm. Upon reaching the exponential growth phase (OD600 = 0.3–0.5), cultures were standardized to a final concentration of 5 × 10^4 CFU/mL. Aliquots (50 µL) of the standardized inoculum were dispensed into wells containing either no antimicrobial agent (negative control) or the test compounds at concentrations corresponding to ½ MIC and MIC. Bacterial growth was continuously monitored over a 24 h period by measuring absorbance at 595 nm every 10 min using a Bio-Tek EL808 microplate reader (Winooski, VT, USA). Growth kinetics were assessed by comparing the optical density profiles of treated samples against the untreated control. Each experiment was performed independently twice, with all conditions tested in triplicate. Data are presented as the mean values of these replicates.

[5] = test system: Staphylococcus aureus Clinical/MRSA; test: Broth microdilution MIC; format: cell-based; conditions: for MIC: Staphylococcus aureus, MRSA, read-out: Minimum Inhibitory Concentrations (MIC)
[6] = test system: Bacillus cereus ATCC 14579; test: Broth microdilution MIC; format: cell-based; conditions: ATCC14579, read-out: Minimum Inhibitory Concentrations (MIC), Bacillus cereus ATCC 14579
HEK293 cells = test: Cytotoxicity MTS assay; format: cell-based, human; conditions: read-out: IC50 HEK293
Experimental: (§4) The cytotoxic potential of the selected drug candidates was evaluated using the CellTiter 96® AQueous One Solution Cell Proliferation Assay (Promega, Madison, WI, USA), following the manufacturer’s protocol. Human cell lines RPE1 and HEK293 were cultured at 37 °C in a humidified incubator with 5% CO2. Test compounds were dissolved in the appropriate growth medium and serially diluted across a range of concentrations in 96-well microtiter plates. Each well was seeded with 5000 cells and incubated for 48 h under standard culture conditions. Following this incubation period, 20 µL of MTS reagent was added to each well, and the plates were further incubated for 3 h to allow for color development. Absorbance was measured at 490 nm using a microplate reader to determine cell viability. Cytotoxicity was quantified as the half-maximal inhibitory concentration (IC50), defined as the concentration of compound that reduced cell viability by 50%. […] IC50 values were calculated using GraFit 6.0 software by plotting compound concentration against absorbance and fitting the data to a sigmoidal dose–response curve.

RPE1 cells = test: Cytotoxicity MTS assay; format: cell-based, human; conditions: read-out: IC50 RPE1
Experimental: as §4

[7] = test system: Enterococcus faecalis ATCC 29212; test: Broth microdilution MIC; format: cell-based; conditions: for MIC: Enterococcus faecalis, ATCC29212, read-out: Minimum Inhibitory Concentrations (MIC), Enterococcus faecalis ATCC 29212
[8] = test system: Listeria monocytogenes ATCC 7644; test: Broth microdilution MIC; format: cell-based; conditions: Listeria monocytogenes, ATCC7644, read-out: Minimum Inhibitory Concentrations (MIC), Listeria monocytogenes ATCC 7644
[9] = test system: Staphylococcus aureus ATCC 33591 (methicillin-resistant); test: Broth microdilution MIC; format: cell-based; conditions: for MIC: Staphylococcus aureus, ATCC33591, read-out: Minimum Inhibitory Concentrations (MIC)
[10] = test system: Salmonella enterica (food isolate); test: Broth microdilution MIC; format: cell-based; conditions: read-out: Minimum Inhibitory Concentrations (MIC)
[11] = test system: Staphylococcus aureus ATCC 25923; test: Broth microdilution MIC; format: cell-based; conditions: for MIC: Staphylococcus aureus, ATCC25923, read-out: Minimum Inhibitory Concentrations (MIC)
[12] = test system: Staphylococcus aureus ATCC 25923; test: Time-kill kinetics assay; format: cell-based
Experimental: To assess the temporal dynamics of bacterial viability upon exposure to the test compounds, a time-kill kinetics assay was performed using the Gram-positive reference strain Staphylococcus aureus ATCC 25923. An overnight culture of the strain was subcultured into fresh, pre-warmed Mueller–Hinton broth (MHB) and incubated under aerobic conditions at 37 °C with agitation (220 rpm) until reaching the early exponential growth phase. The bacterial suspension was then standardized to an initial concentration of approximately 5 × 10^5 CFU/mL. […] Wells containing untreated bacterial cultures served as growth controls. Immediately after mixing, a 10 µL sample from each well was withdrawn, diluted in 990 µL of MHB, and serially diluted tenfold up to 10^−6. From each dilution, 20 µL was plated on MHB agar using a sterile loop to determine the initial bacterial count (time zero). The treated plates were incubated at 37 °C, and additional samples were collected at predetermined time points (2, 4, 6, 8, 12, and 24 h) following the same dilution and plating protocol. After 24 h of incubation at 37 °C, colonies were counted, and viable bacterial counts were expressed as log10 CFU/mL for each time point. Bactericidal activity was evaluated by plotting the log10 CFU/mL over time, providing a dynamic profile of the compound’s killing kinetics.

[13] = test system: Staphylococcus aureus ATCC 25923; test: Time-resolved growth kinetics; format: cell-based; conditions: subinhibitory concentrations, relative to 2(QC16)3 and 2(QC16)6
Experimental: as §3

[14] = test system: Staphylococcus aureus ATCC 25923; test: Biofilm inhibition assay (crystal violet); format: cell-based
Experimental: as §1
as §2, with “Plates” for “Aliquots (50 µL) of the standardized bacterial suspension were inoculated into 96-well microtiter plates containing the test compounds at final concentrations of 100, 50, 25, and 12.5 µg/mL. Plates”

[15] = Listeria monocytogenes, ATCC7644, read-out: biofilm inhibition

CCCCCCCCCCCCCCCCNC1C[N+]2(CCCC[N+]34CCC(CC3)C(NCCCCCCCCCCCCCCCC)C4)CCC1CC2 (racemic) [2(QC16)4, (±)-1,1′-(Butane-1,4-diyl) bis(3-(hexadecylamino)quinuclidinium) dibromide]
MIC [1]: > 75 µM
MIC [2]: 19 µM
inhibition at 6.25 µg/mL [3, 15]: > 50%
inhibition at 12.5 µg/mL [3, 15]: > 70%
inhibition at 25 µg/mL [3, 15]: > 90%
inhibition at 50 µg/mL [3, 15]: > 90%
inhibition at 100 µg/mL [3, 15]: 92%
effect on bacterial growth [4]: pronounced inhibitory effect
MIC [5]: 75 µM
MIC [6]: > 75 µM
IC50 (HEK293 cells; Homo sapiens, HEK293, 48 h): 25 µM
IC50 (RPE1 cells; Homo sapiens, RPE-1, 48 h): 34 µM
MIC [7]: 38 µM
MIC [8]: 9 µM
MIC [9]: 9 µM
MIC [10]: 75 µM
MIC [11]: 75 µM

CCCCCCCCCCCCCCNC1C[N+]2(CCCCCC[N+]34CCC(CC3)C(NCCCCCCCCCCCCCC)C4)CCC1CC2 (racemic) [2(QC14)6, (±)-1,1′-(Hexane-1,6-diyl) bis(3-(tetradecylamino)quinuclidinium) dibromide]
MIC [1]: > 75 µM
time to rapid bactericidal activity ([12]; S. aureus ATCC 25923): ≤ 3 h
time to complete killing ([12]; S. aureus ATCC 25923, 2 × MIC): 2 h
MIC [2]: 19 µM
growth curve slope in exponential phase [13]: shallower growth curve slope
biofilm inhibition ([14]; S. aureus ATCC 25923, 6.25 µg/mL): 13%
biofilm inhibition ([14]; S. aureus ATCC 25923, 12.5 µg/mL): 15%
biofilm inhibition ([14]; S. aureus ATCC 25923, 25 µg/mL): 34%
biofilm inhibition ([14]; S. aureus ATCC 25923, 50 µg/mL): remained effective
biofilm inhibition ([14]; S. aureus ATCC 25923, 100 µg/mL): > 90%
MIC [5]: 75 µM
MIC [6]: 75 µM
IC50 (HEK293 cells; Homo sapiens, HEK293, 48 h): 42 µM
IC50 (RPE1 cells; Homo sapiens, RPE-1, 48 h): 61 µM
MIC [7]: 38 µM
MIC [8]: 19 µM
MIC [9]: 19 µM
MIC [10]: 75 µM
MIC [11]: 38 µM

CCCCCCCCCCCC[N+](C)(C)Cc1ccccc1.[Br-] [BAB, benzyldodecyldimethylammonium bromide, reference compound]
Minimum Inhibitory Concentrations (MIC) ([2]; Escherichia coli ATCC 25922): 63 µM
biofilm inhibition ([3]; 12.5 µg/mL): comparable values
biofilm inhibition ([3]; 25 µg/mL): 20%
biofilm inhibition ([3]; 50 µg/mL): remaining consistent
biofilm inhibition ([3]; 100 µg/mL): 44%
biofilm inhibition ([14]; S. aureus ATCC 25923, across all tested concentrations): > 74%
Minimum Inhibitory Concentrations (MIC) ([5]; Staphylococcus aureus Clinical/MRSA): 25 µM
IC50 (HEK293 cells; HEK293 cells, 48 h, MTS): 3 µM
IC50 (RPE1 cells; RPE1 cells, 48 h, MTS): 0.82 µM
Minimum Inhibitory Concentrations (MIC) ([7]; Enterococcus faecalis ATCC 29212): 15 µM
Minimum Inhibitory Concentrations (MIC) ([9]; Staphylococcus aureus ATCC 33591): 25 µM
MIC [10]: 50 µM
Minimum Inhibitory Concentrations (MIC) ([11]; Staphylococcus aureus ATCC 25923): 10 µM

— article PMC12473123, “Structure–Function Insights into Quinuclidine-3-One BisQACs: Synthesis, Modulation of Bacterial Resistance, Structure–Activity Relationship, and Biological Profiling” (Pharmaceuticals, 2025)
